1 compound from patent publication US11022604B2, “Dock derived compound against laminin receptor (37 LR) and uses thereof” (Purdue Research Foundation, priority 2017, dated 2021) can be followed below.

Where two headings read alike, the source gives them in different places.

This experiment concerns PC-3 androgen independent metastatic prostate cancer cells. The experiment is described as follows: Cell viability screen (CCK-8), PC-3 cells. Type of experiment: cell-based. To be noted: CCK-8, 96 hours, read-out: IC50, inhibition of cell viability. The method, then:
FIGS. 2A-2H. Dose response curves. Does response curves for cell lines treated with 6, 10.5, 18.6, 32.4, 57.5 and 100 μM of compound (log) for 96 hours using % cell viability derived from CCK-8 absorbance readings at 450 nm (n=3, mean±SEM). A DMSO equivalent control (n=2±SEM) was also included for each cell line tested: Ea.hy.926 endothelial cells (Endo), LNCaP androgen dependent metastatic prostate cancer cells, TC2-Ras mouse prostate cancer cells, PC-3 androgen independent metastatic prostate cancer cells, and SH-SY5Y neruoblastoma cells. […]
Cell Viability Screen. […] Cell viability was measured by using the cell counting kit-8 (CCK-8, Dojindo). […] CCK-8 absorbance was measured at 450 nm using a GloMax Multimode Reader (Promega). Readings were performed the day after seeding to normalize for variations in cell seeding and after 96 hours of compound treatment. After each reading, CCK-8 media was removed and replaced with media containing compound as described previously. […] As described previously, an initial baseline CCK-8 reading was performed at 24 hours post seeding to correct for variations in seeding density. First, 450 nm values for each well were subtracted from media only readings to correct for baseline absorbance. Then, the 96 hour readings were normalized to their respective 24 hour readings to control for seeding variation. […]

A word on the IC50: it is the concentration at which inhibition is half-maximal. `O=C(c1cc(F)cc2c1OCOC2)N1CCN(C2c3ccccc3-c3ccccc32)CC1` [Compound C3, [4-(9h-fluoren-9-yl)piperazino](6-fluoro-4h-1,3-benzodioxin-8-yl)methanone]: the IC50 was approximately 1000 nM. Besides, the IC50 (Homo sapiens, PC-3, 96 h) was approximately 800 nM.
